Measured values as given in patent US20250042875A1, “PESTICIDALLY ACTIVE PYRIDAZINONE COMPOUNDS” (SYNGENTA CROP PROTECTION AG, priority 2021, published 2025).

Legend:
Assay type in all cases: in vivo
Chilo suppressalis = test: Activity against Chilo suppressalis (striped rice stemborer), artificial diet, L2 larvae; conditions: 144 h, application rate 200 ppm, 6 days after infestation, read-out: control in at least one of the three categories (mortality, anti-feedant effect, or growth inhibition)
Protocol: Example B1: Activity Against Chilo suppressalis (Striped Rice Stemborer)
24-well microtiter plates with artificial diet were treated with aqueous test solutions prepared from 10′000 ppm DMSO stock solutions by pipetting. After drying, the plates were infested with L2 larvae (6-8 per well). The samples were assessed for mortality, anti-feeding effect, and growth inhibition in comparison to untreated samples 6 days after infestation. Control of Chilo suppressalis by a test sample is given when at least one of the categories mortality, anti-feedant effect, and growth inhibition is higher than the untreated sample.

Diabrotica balteata = test: Activity against Diabrotica balteata (corn root worm), maize sprouts, L2 larvae; conditions: 96 h, application rate 200 ppm, 4 days after infestation, read-out: control in at least one of the two categories (mortality or growth inhibition)
Protocol: Example B2: Activity Against Diabrotica Balteata (Corn Root Worm)
Maize sprouts placed onto an agar layer in 24-well microtiter plates were treated with aqueous test solutions prepared from 10′000 ppm DMSO stock solutions by spraying. After drying, the plates were infested with L2 larvae (6 to 10 per well). The samples were assessed for mortality and growth inhibition in comparison to untreated samples 4 days after infestation.

Euschistus heros = test: Activity against Euschistus heros (neotropical brown stink bug), soybean leaves, N2 nymphs; conditions: 120 h, application rate 200 ppm, 5 days after infestation, read-out: effect in at least one of the two categories (mortality or growth inhibition)
Protocol: Example B3: Activity Against Euschistus heros (Neotropical Brown Stink Bug)
Soybean leaves on agar in 24-well microtiter plates were sprayed with aqueous test solutions prepared from 10′000 ppm DMSO stock solutions. After drying the leaves were infested with N2 nymphs. The samples were assessed for mortality and growth inhibition in comparison to untreated samples 5 days after infestation.

Myzus persicae [1] = test: Activity against Myzus persicae (green peach aphid), feeding/contact activity; conditions: 144 h, application rate 200 ppm, 6 days after infestation
Protocol: Example B5: Activity Against Myzus persicae (Green Peach Aphid). Feeding/Contact Activity
Sunflower leaf discs were placed onto agar in a 24-well microtiter plate and sprayed with aqueous test solutions prepared from 10′000 ppm DMSO stock solutions. After drying, the leaf discs were infested with an aphid population of mixed ages. The samples were assessed for mortality 6 days after infestation.

Myzus persicae [2] = test: Activity against Myzus persicae (green peach aphid), intrinsic activity; conditions: 120 h, test rate 12 ppm, 5 days after infestation
Text: Example B6: Activity Against Myzus persicae (Green Peach Aphid). Intrinsic Activity
Test compounds prepared from 10′000 ppm DMSO stock solutions were applied by pipette into 24-well microtiter plates and mixed with sucrose solution. The plates were closed with a stretched Parafilm. A plastic stencil with 24 holes was placed onto the plate and infested pea seedlings were placed directly on the Parafilm. The infested plate was closed with a gel blotting paper and another plastic stencil and then turned upside down. The samples were assessed for mortality 5 days after infestation.

Plutella xylostella = test: Activity against Plutella xylostella (diamond back moth), artificial diet, eggs; conditions: 192 h, application rate 200 ppm, 8 days after infestation, read-out: control in at least one of the two categories (mortality or growth inhibition)
Protocol: Example B7: Activity Against Plutella xylostella (Diamond Back Moth)
24-well microtiter plates with artificial diet were treated with aqueous test solutions prepared from 10′000 ppm DMSO stock solutions by pipetting. After drying, Plutella eggs were pipetted through a plastic stencil onto a gel blotting paper and the plate was closed with it. The samples were assessed for mortality and growth inhibition in comparison to untreated samples 8 days after infestation.

Spodoptera littoralis = test: Activity against Spodoptera littoralis (Egyptian cotton leaf worm), cotton leaf discs, L1 larvae; conditions: foliar, 72 h, application rate 200 ppm, 3 days after infestation, read-out: control in at least one of the three categories (mortality, anti-feedant effect, or growth inhibition)
Protocol: Example B8: Activity Against Spodoptera littoralis (Egyptian Cotton Leaf Worm)
Cotton leaf discs were placed onto agar in 24-well microtiter plates and sprayed with aqueous test solutions prepared from 10′000 ppm DMSO stock solutions. After drying the leaf discs were infested with five L1 larvae. The samples were assessed for mortality, anti-feeding effect, and growth inhibition in comparison to untreated samples 3 days after infestation. Control of Spodoptera littoralis by a test sample is given when at least one of the categories mortality, anti-feedant effect, and growth inhibition is higher than the untreated sample.

C[C@H](NC(=O)c1cc(C(F)(F)F)cc(C(F)(F)F)c1)c1ncnn1-c1ccc(=O)n(C)n1 [P1, N-[(1S)-1-[2-(1-methyl-6-oxo-pyridazin-3-yl)-1,2,4-triazol-3-yl]ethyl]-3,5-bis(trifluoromethyl)benzamide]
≥ 80%: percent control (mortality, anti-feedant effect or growth inhibition) at 200 ppm (Chilo suppressalis) | percent control (mortality or growth inhibition) at 200 ppm (Diabrotica balteata) | percent effect (mortality or growth inhibition) at 200 ppm (Euschistus heros) | mortality at 200 ppm (Myzus persicae [1]) | mortality at 12 ppm (Myzus persicae [2]) | percent control (mortality or growth inhibition) at 200 ppm (Plutella xylostella) | percent control (mortality, anti-feedant effect or growth inhibition) at 200 ppm (Spodoptera littoralis)

CC(NC(=O)c1cc(Cl)cc(C(F)(F)F)c1)c1nccnc1-c1ccc(=O)n(C)n1 (centres unmarked) [P7, 3-chloro-N-[1-[3-(1-methyl-6-oxo-pyridazin-3-yl)pyrazin-2-yl]ethyl]-5-(trifluoromethyl)benzamide]
≥ 80%: percent control (mortality, anti-feedant effect or growth inhibition) at 200 ppm (Chilo suppressalis) | percent control (mortality or growth inhibition) at 200 ppm (Diabrotica balteata) | mortality at 200 ppm (Myzus persicae [1]) | mortality at 12 ppm (Myzus persicae [2]) | percent control (mortality or growth inhibition) at 200 ppm (Plutella xylostella) | percent control (mortality, anti-feedant effect or growth inhibition) at 200 ppm (Spodoptera littoralis)

C[C@H](NC(=O)c1cc(C(F)(F)F)cc(S(=O)(=O)C(F)(F)F)c1)c1ncnn1-c1ccc(=O)n(C)n1 [P8, N-[(1S)-1-[2-(1-methyl-6-oxo-pyridazin-3-yl)-1,2,4-triazol-3-yl]ethyl]-3-(trifluoromethyl)-5-(trifluoromethylsulfonyl) benzamide]
≥ 80%: percent control (mortality, anti-feedant effect or growth inhibition) at 200 ppm (Chilo suppressalis) | percent control (mortality or growth inhibition) at 200 ppm (Diabrotica balteata) | percent effect (mortality or growth inhibition) at 200 ppm (Euschistus heros) | mortality at 200 ppm (Myzus persicae [1]) | mortality at 12 ppm (Myzus persicae [2]) | percent control (mortality or growth inhibition) at 200 ppm (Plutella xylostella) | percent control (mortality, anti-feedant effect or growth inhibition) at 200 ppm (Spodoptera littoralis)

CC(NC(=O)c1cc(Br)cc(C(F)(F)F)c1)c1nccnc1-c1ccc(=O)n(C)n1 (centres unmarked) [P10, 3-bromo-N-[1-[3-(1-methyl-6-oxo-pyridazin-3-yl)pyrazin-2-yl]ethyl]-5-(trifluoromethyl)benzamide]
≥ 80%: percent control (mortality, anti-feedant effect or growth inhibition) at 200 ppm (Chilo suppressalis) | percent control (mortality or growth inhibition) at 200 ppm (Diabrotica balteata) | mortality at 200 ppm (Myzus persicae [1]) | mortality at 12 ppm (Myzus persicae [2]) | percent control (mortality or growth inhibition) at 200 ppm (Plutella xylostella) | percent control (mortality, anti-feedant effect or growth inhibition) at 200 ppm (Spodoptera littoralis)

CC(NC(=O)c1cc(Cl)cc(OC(F)(F)F)c1)c1nccnc1-c1ccc(=O)n(C)n1 (centres unmarked) [P11, 3-chloro-N-[1-[3-(1-methyl-6-oxopyridazin-3-yl)pyrazin-2-yl]ethyl]-5-(trifluoromethoxy) benzamide]
≥ 80%: percent control (mortality, anti-feedant effect or growth inhibition) at 200 ppm (Chilo suppressalis) | percent control (mortality or growth inhibition) at 200 ppm (Diabrotica balteata) | percent effect (mortality or growth inhibition) at 200 ppm (Euschistus heros) | mortality at 200 ppm (Myzus persicae [1]) | mortality at 12 ppm (Myzus persicae [2]) | percent control (mortality or growth inhibition) at 200 ppm (Plutella xylostella) | percent control (mortality, anti-feedant effect or growth inhibition) at 200 ppm (Spodoptera littoralis)

CC(NC(=O)c1cc(OC(F)F)cc(C(F)(F)F)c1)c1nccnc1-c1ccc(=O)n(C)n1 (centres unmarked) [P14, 3-(difluoromethoxy)-N-[1-[3-(1-methyl-6-oxo-pyridazin-3-yl)pyrazin-2-yl]ethyl]-5-(trifluoromethyl)benzamide]
≥ 80%: percent control (mortality, anti-feedant effect or growth inhibition) at 200 ppm (Chilo suppressalis) | percent control (mortality or growth inhibition) at 200 ppm (Diabrotica balteata) | percent effect (mortality or growth inhibition) at 200 ppm (Euschistus heros) | mortality at 200 ppm (Myzus persicae [1]) | mortality at 12 ppm (Myzus persicae [2]) | percent control (mortality or growth inhibition) at 200 ppm (Plutella xylostella) | percent control (mortality, anti-feedant effect or growth inhibition) at 200 ppm (Spodoptera littoralis)

CCn1nc(-n2ncnc2[C@H](C)NC(=O)c2cc(Cl)cc(S(=O)(=O)C(F)(F)F)c2)ccc1=O [P17, 3-chloro-N-[(1S)-1-[2-(1-ethyl-6-oxo-pyridazin-3-yl)-1,2,4-triazol-3-yl]ethyl]-5-(trifluoromethylsulfonyl)benzamide]
≥ 80%: percent control (mortality, anti-feedant effect or growth inhibition) at 200 ppm (Chilo suppressalis) | percent control (mortality or growth inhibition) at 200 ppm (Diabrotica balteata) | mortality at 200 ppm (Myzus persicae [1]) | mortality at 12 ppm (Myzus persicae [2]) | percent control (mortality or growth inhibition) at 200 ppm (Plutella xylostella) | percent control (mortality, anti-feedant effect or growth inhibition) at 200 ppm (Spodoptera littoralis)

C[C@@H](c1ncnn1C1=NN(C)C(=O)CC1)N(C)C(=O)c1cc(Cl)cc(S(=O)(=O)C(F)(F)F)c1 [P22, 3-chloro-N-methyl-N-[(1S)-1-[2-(1-methyl-6-oxo-4,5-dihydropyridazin-3-yl)-1,2,4-triazol-3-yl]ethyl]-5-(trifluoromethylsulfonyl) benzamide]
≥ 80%: percent control (mortality, anti-feedant effect or growth inhibition) at 200 ppm (Chilo suppressalis) | percent control (mortality or growth inhibition) at 200 ppm (Diabrotica balteata) | mortality at 200 ppm (Myzus persicae [1]) | mortality at 12 ppm (Myzus persicae [2]) | percent control (mortality or growth inhibition) at 200 ppm (Plutella xylostella) | percent control (mortality, anti-feedant effect or growth inhibition) at 200 ppm (Spodoptera littoralis)

CC(NC(=O)c1cc(C(F)(F)F)cc(C2(C#N)CC2)c1)c1nccnc1-c1ccc(=O)n(C)n1 (centres unmarked) [P24, 3-(1-cyanocyclopropyl)-N-[1-[3-(1-methyl-6-oxo-pyridazin-3-yl)pyrazin-2-yl]ethyl]-5-(trifluoromethyl) benzamide]
≥ 80%: percent control (mortality, anti-feedant effect or growth inhibition) at 200 ppm (Chilo suppressalis) | mortality at 200 ppm (Myzus persicae [1]) | mortality at 12 ppm (Myzus persicae [2]) | percent control (mortality or growth inhibition) at 200 ppm (Plutella xylostella) | percent control (mortality, anti-feedant effect or growth inhibition) at 200 ppm (Spodoptera littoralis)

CC(NC(=O)c1cc(Cl)nc(C2(C#N)CC2)c1)c1nccnc1-c1ccc(=O)n(C)n1 (centres unmarked) [P34, 2-chloro-6-(1-cyanocyclopropyl)-N-[1-[3-(1-methyl-6-oxo-pyridazin-3-yl)pyrazin-2-yl]ethyl]pyridine-4-carboxamide]
≥ 80%: percent control (mortality, anti-feedant effect or growth inhibition) at 200 ppm (Chilo suppressalis) | mortality at 200 ppm (Myzus persicae [1]) | mortality at 12 ppm (Myzus persicae [2]) | percent control (mortality or growth inhibition) at 200 ppm (Plutella xylostella) | percent control (mortality, anti-feedant effect or growth inhibition) at 200 ppm (Spodoptera littoralis)

C[C@H](NC(=O)c1cc(Cl)nc(C2(C#N)CC2)c1)c1ncnn1-c1ccc(=O)n(C)n1 [P35, 2-chloro-6-(1-cyanocyclopropyl)-N-[(1S)-1-[2-(1-methyl-6-oxo-pyridazin-3-yl)-1,2,4-triazol-3-yl]ethyl]pyridine-4-carboxamide]
≥ 80%: percent control (mortality, anti-feedant effect or growth inhibition) at 200 ppm (Chilo suppressalis) | percent effect (mortality or growth inhibition) at 200 ppm (Euschistus heros) | mortality at 200 ppm (Myzus persicae [1]) | mortality at 12 ppm (Myzus persicae [2]) | percent control (mortality or growth inhibition) at 200 ppm (Plutella xylostella)

CC(NC(=O)c1cc(OC(F)F)cc(C2(C#N)CC2)c1)c1nccnc1-c1ccc(=O)n(C)n1 (centres unmarked) [P44, 3-(1-cyanocyclopropyl)-5-(difluoromethoxy)-N-[1-[3-(1-methyl-6-oxo-pyridazin-3-yl)pyrazin-2-yl]ethyl]benzamide]
≥ 80%: percent control (mortality, anti-feedant effect or growth inhibition) at 200 ppm (Chilo suppressalis) | percent effect (mortality or growth inhibition) at 200 ppm (Euschistus heros) | mortality at 200 ppm (Myzus persicae [1]) | mortality at 12 ppm (Myzus persicae [2]) | percent control (mortality or growth inhibition) at 200 ppm (Plutella xylostella) | percent control (mortality, anti-feedant effect or growth inhibition) at 200 ppm (Spodoptera littoralis)

C[C@H](NC(=O)c1cc(OC(F)F)cc(C2(C#N)CC2)c1)c1ncnn1-c1ccc(=O)n(C)n1 [P45, 3-(1-cyanocyclopropyl)-5-(difluoromethoxy)-N-[(1S)-1-[2-(1-methyl-6-oxo-pyridazin-3-yl)-1,2,4-triazol-3-yl]ethyl]benzamide]
≥ 80%: percent control (mortality, anti-feedant effect or growth inhibition) at 200 ppm (Chilo suppressalis) | percent effect (mortality or growth inhibition) at 200 ppm (Euschistus heros) | mortality at 200 ppm (Myzus persicae [1]) | mortality at 12 ppm (Myzus persicae [2])

CC(NC(=O)c1cc(Br)cc(C(F)(F)F)c1)c1nccnc1-c1cn(CC(F)F)c(=O)cn1 (centres unmarked) [P49, 3-bromo-N-[1-[3-[4-(2,2-difluoroethyl)-5-oxo-pyrazin-2-yl]pyrazin-2-yl]ethyl]-5-(trifluoromethyl)benzamide]
≥ 80%: percent control (mortality, anti-feedant effect or growth inhibition) at 200 ppm (Chilo suppressalis) | percent control (mortality or growth inhibition) at 200 ppm (Diabrotica balteata) | mortality at 200 ppm (Myzus persicae [1]) | mortality at 12 ppm (Myzus persicae [2]) | percent control (mortality or growth inhibition) at 200 ppm (Plutella xylostella) | percent control (mortality, anti-feedant effect or growth inhibition) at 200 ppm (Spodoptera littoralis)
